Measured values reported in patent US9789181B2, “PAN-DR binding polypeptides and uses thereof” (Epimmune Inc., priority 2009, dated 2017).
Where no end group is shown, it is not given here.

Columns and labels:
[1] = target: HLA DRB1 *0101 (Homo sapiens, UniProt P01903+P01911, A100R/D57E/F55L/F60I/F76Y/I96L/L162R/M171V/P40L/Q125E/R42F/V115G/Y59C); assay: IC50nM to purified HLA | DRB1 *0101
Procedure: (§1) Table printed on a drawing sheet, FIG. 1 (contd.)
(§2) Head of the field: IC50nM to purified HLA | DRB1 *0101
(§3) First copying reader's note: Continued from an earlier sheet of FIG. 1; decimal commas as printed, analog names encode substituted residues and positions, and some values are printed in italics or bold and some SEQ ID NOs underlined without a legend on this sheet.
(§4) Where the first naming reader finds the target: head: IC50nM to purified HLA | DRB1 *0101

[2] = target: HLA DRB1 *0405 (Homo sapiens, UniProt P01903+P01911, A100R/A169T/D86S/F76Y/I96L/K127E/L162R/M171V/N62H/P40V/Q125Y/R42H/S133A/S149N/S66Y/V115G/V209L/W38E); assay: IC50nM to purified HLA | DRB1 *0405
Procedure: as §1
(§5) Head of the field: IC50nM to purified HLA | DRB1 *0405
as §3
(§6) Where the first naming reader finds the target: head: IC50nM to purified HLA | DRB1 *0405

[3] = target: HLA DRB1 *0301 (Homo sapiens, UniProt P01903+P01911, A100K/A102G/A103R/A169T/F55Y/I96L/K41T/L162R/M171V/P40S/Q125H/Q178H/Q39Y/R42S/S66N/T106N/T262R/W38E/Y61H); assay: IC50nM to purified HLA | DRB1 *0301
Procedure: as §1
(§7) Head of the field: IC50nM to purified HLA | DRB1 *0301
as §3
(§8) Where the first naming reader finds the target: head: IC50nM to purified HLA | DRB1 *0301

[4] = target: HLA DRB1 *1501 (Homo sapiens, UniProt P01903+P01911); assay: IC50nM to purified HLA | DRB1 *1501
Procedure: as §1
Head of the field: IC50nM to purified HLA | DRB1 *1501
as §3
Where the first naming reader finds the target: head: IC50nM to purified HLA | DRB1 *1501

[5] = target: HLA DRB1 *0901 (Homo sapiens, UniProt P01903+P01911, A100R/A103E/D57H/D86V/F55Y/F60I/F76Y/I96F/K127E/L162R/M171V/P40D/Q125H/Q99R/R33Q/R42F/S133A/S66N/T210M/V115G/W38K/Y107V/Y59G/Y89S); assay: IC50nM to purified HLA | DRB1 *0901
Procedure: as §1
Head of the field: IC50nM to purified HLA | DRB1 *0901
as §3
Where the first naming reader finds the target: head: IC50nM to purified HLA | DRB1 *0901

[6] = target: HLA DRB1 *0701 (Homo sapiens, UniProt P01903+P01911, A100R/A102G/A103Q/D57E/D86V/E43K/F76Y/K127E/L162R/M171V/P40G/Q125H/Q99D/R33Q/R42Y/R54Q/S133A/S66F/T210M/V115G/Y107V/Y59L/Y89S); assay: IC50nM to purified HLA | DRB1 *0701
Procedure: as §1
(§9) Head of the field: IC50nM to purified HLA | DRB1 *0701
as §3
(§10) Where the first naming reader finds the target: head: IC50nM to purified HLA | DRB1 *0701

[7] = target: HLA DRB4 *0101 (Homo sapiens, UniProt P01903+P13762, G164S); assay: IC50nM to purified HLA | DRB4 *0101
Procedure: as §1
(§11) Head of the field: IC50nM to purified HLA | DRB4 *0101
as §3
(§12) Where the first naming reader finds the target: head: IC50nM to purified HLA | DRB4 *0101

[8] = target: HLA DRB1 *0404 (Homo sapiens, UniProt P01903+P01911, A100R/A169T/F76Y/I96L/K127E/L162R/M171V/N62H/P40V/Q125Y/R42H/S133A/S149N/S66Y/V209L/W38E); assay: IC50nM to purified HLA | DRB1 *0404
Procedure: as §1
(§13) Head of the field: IC50nM to purified HLA | DRB1 *0404
as §3
(§14) Where the first naming reader finds the target: head: IC50nM to purified HLA | DRB1 *0404

[9] = target: HLA DRB5 *0101 (Homo sapiens, UniProt P01903+Q30154); assay: IC50nM to purified HLA | DRB5 *0101
Procedure: as §1
Head of the field: IC50nM to purified HLA | DRB5 *0101
as §3
Where the first naming reader finds the target: head: IC50nM to purified HLA | DRB5 *0101

[10] = target: HLA DRB1 *1101 (Homo sapiens, UniProt P01903+P01911, A100R/A169T/A87E/I96F/K41T/L162R/M171V/P40S/Q125H/Q178H/Q39Y/Q99D/R42S/S66Y/T262R/V115G/W38E); assay: IC50nM to purified HLA | DRB1 *1101
Procedure: as §1
Head of the field: IC50nM to purified HLA | DRB1 *1101
as §3
Where the first naming reader finds the target: head: IC50nM to purified HLA | DRB1 *1101

[11] = target: purified HLA DRB1 *0401 (Homo sapiens, UniProt P01903+P01911, A100K/A169T/F76Y/I96L/K127E/L162R/M171V/N62H/P40V/Q125Y/R42H/S133A/S149N/S66Y/V115G/V209L/W38E); assay: IC50nM to purified HLA | DRB1 *0401
Procedure: (§15) Table printed on a drawing sheet, FIG. 1
Head of the field: IC50nM to purified HLA | DRB1 *0401
(§16) First copying reader's note: The comma is the decimal sign and the point a thousands separator (e.g. 21.831); some values are printed bold or italic and some SEQ ID NOs underlined, with no legend on the sheet.
Where the first naming reader finds the target: head: IC50nM to purified HLA | DRB1 *0401

[12] = test system: crude extract from E. coli; assay: In situ protease assay: TNFα variants in E. coli crude extract, SDS-PAGE and Western blot; type: in vitro ADME; details: sequence inserted into loop EF of human TNFα, procedure of Example 2
Procedure: In order to test the protease resistance of selected, good binding PADRE analogues, their sequences were inserted by cloning techniques into a loop (loop EF) in human TNFα. Cell-free protein crude extract from E. coli expressing the modified TNFα molecules was prepared and proteolytic cleavage within the PADRE analogue sequences was analysed by SDS-PAGE followed by immunoblotting.
A synthetic cDNA encoding TNF (Y87S) was used as template. Oligonucleotides encoding PADRE or PADRE analogues were inserted into the template between A185 and E186 by PCR (cf. above). Resulting cDNAs were cloned into pET28b+(Novagen) and transformed into E. coli strain HMS 174. For recombinant expression, the resulting E. coli strains were cultured in fermentors in a defined medium at 37° C. Induction of recombinant expression was initiated by the addition of 1 mM of IPTG and temperature was lowered to 25° C. Cultures were harvested at 4, 8 or 24 h post-IPTG induction. TNFα variants were purified to >90% homogeneity by affinity chromatography using a TNFα specific monoclonal antibody as described in Nielsen et al., (2004), J Biol. Chem. 279:33593-33600. The purified TNFα variants were characterized by MALDI-TOF mass spectrometry to verify their identity and integrity.
In Situ Protease Assay: Analysis of the Protease Resistance of TNF-α Variants Using Western Blot
Aliquots (1 ml) of E. coli cell cultures, expressing the various TNF-α variants to be tested, were centrifuged (5000 g/5 min/5° C.) and the culture medium was discarded. Cell pellets were resuspended in 1 ml of 20 mM Bis-Tris, pH 6.0. Cell disruption was achieved by sonication (4×15 sec at an amplitude of 11 μm with 20 sec pauses between each sonication round). The resulting suspensions were centrifuged (20000 g/30 min/8° C.) and the supernatants (crude extracts) were transferred to fresh tubes. Crude extracts were then analysed for protein content using a Bradford protein assay (Biorad). Equivalent amounts of proteins were loaded onto 4-12% NuPAGE gels (Novex). After SDS-PAGE, proteins were transferred onto nitrocellulose membrane by semi-dry blotting. For immunoreaction, incubation with rabbit TNFα antiserum (1 h; dilution 1:10 000) and with horse radish peroxidase-conjugated secondary antibody (Dako P448) were carried out in Tris 50 mM, NaCl 150 mM, EDTA 5 mM, Igepal 0.1%, gelatine 0.5%. Detection was with ECL™ reagents (GE Healthcare).

[13] = target: purified HLA DRB1 *0701 (Homo sapiens, UniProt P01903+P01911, A100R/A102G/A103Q/D57E/D86V/E43K/F76Y/K127E/L162R/M171V/P40G/Q125H/Q99D/R33Q/R42Y/R54Q/S133A/S66F/T210M/V115G/Y107V/Y59L/Y89S); assay: IC50nM to purified HLA | DRB1 *0701
Procedure: as §15, §9, §16, §10

[14] = target: purified HLA DRB1 *0404 (Homo sapiens, UniProt P01903+P01911, A100R/A169T/F76Y/I96L/K127E/L162R/M171V/N62H/P40V/Q125Y/R42H/S133A/S149N/S66Y/V209L/W38E); assay: IC50nM to purified HLA | DRB1 *0404
Procedure: as §15, §13, §16, §14

[15] = target: purified HLA DRB1 *0101 (Homo sapiens, UniProt P01903+P01911, A100R/D57E/F55L/F60I/F76Y/I96L/L162R/M171V/P40L/Q125E/R42F/V115G/Y59C); assay: IC50nM to purified HLA | DRB1 *0101
Procedure: as §15, §2, §16, §4

[16] = target: purified HLA DRB1 *0405 (Homo sapiens, UniProt P01903+P01911, A100R/A169T/D86S/F76Y/I96L/K127E/L162R/M171V/N62H/P40V/Q125Y/R42H/S133A/S149N/S66Y/V115G/V209L/W38E); assay: IC50nM to purified HLA | DRB1 *0405
Procedure: as §15, §5, §16, §6

[17] = target: purified HLA DRB4 *0101 (Homo sapiens, UniProt P01903+P13762, G164S); assay: IC50nM to purified HLA | DRB4 *0101
Procedure: as §15, §11, §16, §12

[18] = target: purified HLA DRB1 *0301 (Homo sapiens, UniProt P01903+P01911, A100K/A102G/A103R/A169T/F55Y/I96L/K41T/L162R/M171V/P40S/Q125H/Q178H/Q39Y/R42S/S66N/T106N/T262R/W38E/Y61H); assay: IC50nM to purified HLA | DRB1 *0301
Procedure: as §15, §7, §16, §8

[19] = target: purified HLA DRB1 *0802 (Homo sapiens, UniProt P01903+P01911, A100R/A103L/A169T/F76Y/H45Y/I96F/K41T/L162R/M171V/P40S/Q125H/Q178H/Q39Y/Q99D/R218S/R42G/S66Y/V115G/W38E); assay: IC50nM to purified HLA | DRB1 *0802
Procedure: as §15
Head of the field: IC50nM to purified HLA | DRB1 *0802
as §16
Where the first naming reader finds the target: head: IC50nM to purified HLA | DRB1 *0802

Sequence of HLA DRB1 *1101 (P01903 26-254 limits assumed, other chains not shown): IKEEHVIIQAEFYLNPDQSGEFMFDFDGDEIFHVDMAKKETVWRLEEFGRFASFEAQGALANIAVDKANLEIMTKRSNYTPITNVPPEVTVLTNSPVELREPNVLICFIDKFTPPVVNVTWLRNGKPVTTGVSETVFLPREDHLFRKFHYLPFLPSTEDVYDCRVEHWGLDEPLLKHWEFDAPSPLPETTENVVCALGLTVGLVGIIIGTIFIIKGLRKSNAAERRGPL
Sequence of HLA DRB4 *0101 (P01903 26-254 limits assumed): as the sequence (P01903 26-254 limits assumed, other chains not shown) above
Sequence of HLA DRB4 *0101 (P13762 whole entry G164S): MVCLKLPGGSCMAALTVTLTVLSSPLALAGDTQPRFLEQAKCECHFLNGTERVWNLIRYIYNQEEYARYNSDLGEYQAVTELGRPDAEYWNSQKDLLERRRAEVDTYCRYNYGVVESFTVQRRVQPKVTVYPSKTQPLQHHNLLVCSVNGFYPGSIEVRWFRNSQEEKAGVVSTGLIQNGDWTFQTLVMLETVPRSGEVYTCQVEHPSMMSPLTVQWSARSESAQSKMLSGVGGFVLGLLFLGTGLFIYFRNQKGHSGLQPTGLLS
Sequence of HLA DRB1 *0301 (P01903 26-254 limits assumed, other chains not shown): as the sequence (P01903 26-254 limits assumed, other chains not shown) above
Sequence of purified HLA DRB1 *0301 (P01903 26-254 limits assumed, other chains not shown): as above
Sequence of purified HLA DRB4 *0101 (P01903 26-254 limits assumed): as the sequence (P01903 26-254 limits assumed, other chains not shown) above
Sequence of purified HLA DRB4 *0101 (P13762 whole entry G164S): as the sequence (P13762 whole entry G164S) above

AAAIFVAAFTLHAAA [SEQ ID NO: 71] gave an IC50 [1] of 12 nM, an IC50 [2] of 14 nM and an IC50 [3] of 442 nM. It also gave an IC50 [4] of 9.7 nM, an IC50 [5] of 80 nM and an IC50 [6] of 206 nM. For the same sequence, the IC50 [7] was 117 nM, the IC50 [8] was 2.7 nM and the IC50 [9] was 21 nM. The IC50 [10] was 12 nM.
For AAAYFVAAFTLHAAA [SEQ ID NO: 23], the IC50 [11] was 1 nM, the “protease resistance of PADRE analogue sequence” value [12] was “increased resistance towards proteolytic degradation” and the IC50 [13] was 78 nM. For the same sequence, the IC50 [14] was 0.67 nM, the IC50 [15] was 3.4 nM and the IC50 [16] was 4.4 nM. It also gave an IC50 [17] of 81 nM, an IC50 [18] of 126 nM and an IC50 [19] of 5.9 nM.
